Test results reported in patent US11337627B2, “Bioelectrode for detection and/or oxidation of glucose, its production method and device” (CENTRE NATIONAL DE LA RECHERCHE SCIENTIFIQUE, priority 2016, dated 2022).

Tests used:
FAD-GDH enzyme [1] = assay: Cyclic voltammetry of bioelectrodes (carbon nanotubes / aromatic molecule / FAD-GDH) without and with glucose; format: biochemical
Procedure: In FIG. 4, the following terms have the following meanings: • uCNT=carbon nanotubes alone, • FADGDH=CNTs functionalized by FAD-GDH, • 25 mM glucose=CNTs functionalized by FAD-GDH in the presence of a glucose solution at 25 mmol L^−1, • 25 mM glucose (FAD region)=same as above, including the electroactive region of the FAD-GDH cofactor (FAD) in the measurement window in the presence of a glucose solution at 25 mmol L^−1, • FAD=Flavin Adenine Dinucleotide, • 25 mM glucose=concentration of the glucose solution of 25 mmol L^−1, • PYR-NHS=N-hydroxysuccinimide ester of pyrene-butyric acid, • PYR=pyrene, • 1.4-NQ=1.4-naphthoquinone, • PQ=9.10-phenanthrenequinone, • PL=1.10-phenanthroline, • MPL=5-methyl-1.10-phenanthroline, • PLQ=1.10-phenanthroline-5.6-dione.
The tested electrode was a vitreous carbon electrode (support 1) coated with layer 2 of carbon nanotubes alone (Comparative Example 2) or in which the FAD-GDH enzyme alone was deposited on layer 2 of carbon nanotubes (Comparative Example 4).
The dashed curve denoted 3 represents the cyclic voltammogram obtained with a larger electrochemical window (from −0.600 to 0.100 V vs SCE), in the presence of a glucose solution at 25 mmol L^−1.
In FIG. 4, the cartridge C represents the cyclic voltammograms of the electrode of Comparative Example 6 consisting of a vitreous carbon electrode, of layer 2 of carbon nanotubes functionalized by layer 3 of an aromatic molecule which is 1-pyrenebutyric acid N-hydroxysuccinimide ester (PANHS).
Cartridges D, G and H represent the cyclic voltammograms of the electrodes obtained in Examples 4, 5 and 6 respectively.
Cartridges E, F and I show the cyclic voltammograms obtained with the electrodes obtained in Examples 7, 8 and 1 respectively.

FAD-GDH enzyme [2] = assay: Cyclic voltammetric inhibition assays: FAD-GDH directly on carbon nanotubes, aromatic molecules added in solution; format: biochemical; conditions: 100 mmol L^−1 glucose; for catalytic current when the aromatic molecule is present in solution, versus absence of redox mediator: electrode of Comparative Example 4; for effect on performance of bioelectrocatalysis over time (inhibition of FAD-GDH): added in solution; for effect on catalytic currents (inhibition of FAD-GDH): 200 μmol L^−1 in solution, sampling times of less than three hours
Procedure: They were obtained with electrodes whose layer of FAD-GDH enzymes is directly deposited on layer 2 of carbon nanotubes in the presence of 100 mmol L^−1 of glucose solution.
The aromatic molecules 9.10-phenanthrenequinone, 1.10-phenanthroline-5.6-dione, phenanthrene and 1.10-phenanthroline are then gradually added in solution.
0 μM PX=CNTs functionalized by FAD-GDH in the presence of a glucose solution at 100 mmol L^−1 and in the absence of any aromatic molecules (X representing the aromatic molecule PLQ (cartridge A) or PQ (cartridge B))
400 μM PX=CNTs functionalized by FAD-GDH in the presence of a glucose solution at 100 mmol L^−1 and 400 μmol L^−1 of an aromatic molecule PLQ (cartridge A) or PQ (cartridge B)
400 μM PX (180 min)=CNTs functionalized by FAD-GDH in the presence of a glucose solution at 100 mmol L^−1 and […] of an aromatic molecule PLQ (cartridge A) or PQ (cartridge B) after incubation in the solution with a duration of 180 minutes.
200 μM PQ=CNTs functionalized by FAD-GDH in the presence of a solution of glucose at 100 mmol L^−1 and 200 μmol L^−1 of an aromatic molecule PQ (cartridge C and D)
200 μM PQ+200 μM PY (180 min)=CNTs functionalized by FAD-GDH in the presence of a glucose solution at 100 mmol L^−1, 200 μmol L^−1 of an aromatic molecule PQ and 200 μmol L^−1 of an aromatic molecule PY after incubation in the solution for a duration of 180 minutes. (Y represents the aromatic molecule PL (cartridge C) or PH (cartridge D)). • PLQ=1.10-phenanthroline-5.6-dione. • PQ=9.10-phenanthrenequinone, • PL=1.10-phenanthroline, • PH=phenanthrene,
The electrode tested was a vitreous carbon electrode (support 1) in which the FAD-GDH enzyme alone was deposited on layer 2 of carbon nanotubes (Comparative Example 4).

FAD-GDH enzyme [3] = assay: as above; format: biochemical; conditions: 100 mmol L^−1 glucose, 400 μmol L^−1 aromatic molecule
enzyme FAD-GDH = conditions: known; supplier catalog; cited from earlier work

| Compound | glucose concentration at saturation (FAD-GDH enzyme [1]; aromatic molecule immobilized on carbon nanotube layer with FAD-GDH) | electrocatalytic current (FAD-GDH enzyme [1]; aromatic molecule immobilized on carbon nanotube layer with FAD-GDH, potentials higher than 0 V vs SCE, after saturation with glucose) | electron transfer behavior of the aromatic molecule towards FAD-GDH (FAD-GDH enzyme [1]; non-covalent immobilization on a layer of carbon nanotubes) | catalytic current when the aromatic molecule is present in solution, versus absence of redox mediator (FAD-GDH enzyme [2]) | effect on performance of bioelectrocatalysis over time (inhibition of FAD-GDH) (FAD-GDH enzyme [2]) | change of catalytic current after 180 min incubation (inhibition of FAD-GDH) (FAD-GDH enzyme [3]) | change of catalytic current after 180 min incubation together with PQ (inhibition of FAD-GDH) (FAD-GDH enzyme [2]; 200 μmol L^−1 PQ and 200 μmol L^−1 tested molecule, 180 min) | inhibitory activity for FAD-GDH oxidation of glucose (enzyme FAD-GDH) | effect on catalytic currents (inhibition of FAD-GDH) (FAD-GDH enzyme [2]) |
| --- | --- | --- | --- | --- | --- | --- | --- | --- | --- |
| O=C1C(=O)c2cccnc2-c2ncccc21 [1.10-phenanthroline-5.6-dione] | ~130 mmol/L | 600-700 μA | the best redox aromatic molecule | strong increase in the catalytic current | progressive decrease in the performance of bioelectrocatalysis | sharp decrease in the catalytic current |  |  |  |
| c1cnc2c(c1)ccc1cccnc12 [1.10-phenanthroline] |  |  |  |  | progressive decrease in the performance of bioelectrocatalysis |  | The catalytic current drops again | inhibitor of the enzyme FAD-GDH |  |
| O=C1C(=O)c2ccccc2-c2ccccc21 [9.10-phenanthrenequinone] |  |  |  | strong increase of the catalytic current |  | no decrease in the catalytic current |  |  | does not cause a drastic decrease in the catalytic currents |
| c1ccc2c(c1)ccc1ccccc12 [phenanthrene] |  |  |  |  |  |  |  |  | does not cause a drastic decrease in the catalytic currents |
